{"source": "patent US20030068615A1", "about": "“Polypeptides that bind HIV gp120 and related nucleic acids, antibodies, compositions, and methods of use” (priority 1999, published 2003)", "biological_target": "HIV-1LAI envelope gp120 (Human immunodeficiency virus type 1 group M subtype B, UniProt P03377)", "assay_type": "binding", "conditions": "for number of radioactive decays (counts) counted: human CD4 21-mer scan, empty control 2075; for Counts per 20′ Average-background: CCR5 18-mer scan, radiolabeled HIV-1LAI gp120; for Relative % of Control: CXCR4 (1-18) alanine variants, mean of two syntheses and binding experiments ± average deviation, wild-type = 100%", "key": {"[1]": {"conditions": "STRL33 18-mer scan, background subtracted, first of two count columns"}, "[2]": {"conditions": "STRL33 18-mer scan, background subtracted, second of two count columns"}, "[3]": {"conditions": "Panel E, 9-mers and 12-mers of CD4, empty control 571"}, "[4]": {"conditions": "Panel C, 15-mers and 18-mers of CD4, empty control 556"}, "[5]": {"conditions": "Panel D, 9-mers and 12-mers of CD4, empty control […]"}, "[6]": {"conditions": "CXCR4 18-mer scan, background subtracted, empty control 0"}, "[7]": {"conditions": "CXCR4 18-mer scan, empty control 412"}, "[8]": {"conditions": "Panel A, 21-mers of CD4, empty control 515 and 617"}}, "note": "Several values for one entry are separate records, joined by “and”; a condition that tells them apart may be missing. Equal values may be shown once. Read-outs that look alike come from different tables or passages of the source.", "data": [{"sequence": "PVLYAFVSLKFRKNFWKL [STRL33 segment 285-302]", "values": [{"measurement": "radioactive counts recorded in twenty minutes", "setting": "[1]", "value": 1859.5, "unit": "counts"}, {"measurement": "radioactive counts recorded in twenty minutes", "setting": "[2]", "value": 2147.5, "unit": "counts"}]}, {"sequence": "LEAKTGKLHQEVNLVVMRATQ [human CD4 301-321]", "values": [{"measurement": "number of radioactive decays (counts) counted", "value": 1729, "unit": "counts"}]}, {"sequence": "FTVEKLTGS", "values": [{"measurement": "COUNTS of radiolabeled gp120 retained", "setting": "[3]", "value": 574, "unit": "counts"}]}, {"sequence": "HWEYYAMTSFHYTIMVTE [STRL33 segment 257-274]", "values": [{"measurement": "radioactive counts recorded in twenty minutes", "setting": "[1]", "value": 2040.5, "unit": "counts"}, {"measurement": "radioactive counts recorded in twenty minutes", "setting": "[2]", "value": 3065.5, "unit": "counts"}]}, {"sequence": "PLAFTVEKLTGSGEL", "values": [{"measurement": "COUNTS of radiolabeled gp120 retained", "setting": "[4]", "value": 612, "unit": "counts"}]}, {"sequence": "KASSIVYKKEGEQVE", "values": [{"measurement": "COUNTS of radiolabeled gp120 retained", "setting": "[4]", "value": 563, "unit": "counts"}]}, {"sequence": "QVEFSFPLAFTVEKL", "values": [{"measurement": "COUNTS of radiolabeled gp120 retained", "setting": "[4]", "value": 2047, "unit": "counts"}]}, {"sequence": "TLLHAGGFQKHRSLKIIF", "values": [{"measurement": "radioactive counts recorded in twenty minutes", "setting": "[1]", "value": 1041.5, "unit": "counts"}, {"measurement": "radioactive counts recorded in twenty minutes", "setting": "[2]", "value": 999.5, "unit": "counts"}]}, {"sequence": "DTYICEVEDQKE", "values": [{"measurement": "COUNTS of radiolabeled gp120 retained", "setting": "[5]", "value": 720, "unit": "counts"}]}, {"sequence": "TEEMGSGDYDSMKEPCFR [CXCR4 segment 13-30]", "values": [{"measurement": "radioactive counts recorded in twenty minutes", "setting": "[6]", "value": 41, "unit": "counts"}, {"measurement": "radioactive counts recorded in twenty minutes", "setting": "[7]", "value": 453, "unit": "counts"}]}, {"sequence": "AFQKASSIVYKKEGE", "values": [{"measurement": "COUNTS of radiolabeled gp120 retained", "setting": "[4]", "value": 544, "unit": "counts"}]}, {"sequence": "NCKRLKSMTDIYLLNLAI [CCR5 segment 57-74]", "values": [{"measurement": "Counts per 20′ Average-background", "setting": "background subtracted", "value": 25, "unit": "counts per 20′"}]}, {"sequence": "DIVVLAFQKASSIVY", "values": [{"measurement": "COUNTS of radiolabeled gp120 retained", "setting": "[4]", "value": 776, "unit": "counts"}]}, {"sequence": "FISLDRYLAIVHATNSQR", "values": [{"measurement": "radioactive counts recorded in twenty minutes", "setting": "[6]", "value": 91, "unit": "counts"}, {"measurement": "radioactive counts recorded in twenty minutes", "setting": "[7]", "value": 503, "unit": "counts"}]}, {"sequence": "YKKEGEQVEFSFPLAFTVEKL", "values": [{"measurement": "COUNTS of radiolabeled gp120 retained", "setting": "[8]", "value": 735, "unit": "counts"}]}, {"sequence": "KKLPLHLTLPQALPQYAGSGN [human CD4 276-296]", "values": [{"measurement": "number of radioactive decays (counts) counted", "value": 1922, "unit": "counts"}]}, {"sequence": "LTDVFLVNLPLADLVFVC [STRL33 segment 65-82]", "values": [{"measurement": "radioactive counts recorded in twenty minutes", "setting": "[1]", "value": 233.5, "unit": "counts"}, {"measurement": "radioactive counts recorded in twenty minutes", "setting": "[2]", "value": 336.5, "unit": "counts"}]}, {"sequence": "MEGISIYTSDNYTEEMAS", "values": [{"measurement": "Relative % of Control", "value": "68 ± 8", "unit": "%"}]}, {"sequence": "KATKAYNQQAKRMTWGKV", "values": [{"measurement": "radioactive counts recorded in twenty minutes", "setting": "[1]", "value": 701.5, "unit": "counts"}, {"measurement": "radioactive counts recorded in twenty minutes", "setting": "[2]", "value": 568.5, "unit": "counts"}]}, {"sequence": "YAFVGEKFRNYLLVFFQK [CCR5 segment 297-]", "values": [{"measurement": "Counts per 20′ Average-background", "setting": "background subtracted", "value": 596, "unit": "counts per 20′"}]}, {"sequence": "IFANVSEADDRYICDRFY", "values": [{"measurement": "radioactive counts recorded in twenty minutes", "setting": "[6]", "value": 267, "unit": "counts"}, {"measurement": "radioactive counts recorded in twenty minutes", "setting": "[7]", "value": 679, "unit": "counts"}]}, {"sequence": "EDSDTYICE", "values": [{"measurement": "COUNTS of radiolabeled gp120 retained", "setting": "[5]", "value": 650, "unit": "counts"}]}, {"sequence": "LVISIFYHKLQSLTDVFL [STRL33 segment 53-70]", "values": [{"measurement": "radioactive counts recorded in twenty minutes", "setting": "[1]", "value": 1620.5, "unit": "counts"}, {"measurement": "radioactive counts recorded in twenty minutes", "setting": "[2]", "value": 1780.5, "unit": "counts"}]}, {"sequence": "SSIVYKKEGEQVEFSFPL", "values": [{"measurement": "COUNTS of radiolabeled gp120 retained", "setting": "[4]", "value": 756, "unit": "counts"}]}, {"sequence": "ASSIVYKKEGEQVEFSFPLAF", "values": [{"measurement": "COUNTS of radiolabeled gp120 retained", "setting": "[8]", "value": 25146, "unit": "counts"}]}, {"sequence": "KLTGSGELW", "values": [{"measurement": "COUNTS of radiolabeled gp120 retained", "setting": "[3]", "value": 491, "unit": "counts"}]}, {"sequence": "QKASSIVYKKEG", "values": [{"measurement": "COUNTS of radiolabeled gp120 retained", "setting": "[3]", "value": 596, "unit": "counts"}]}, {"sequence": "PLIIKNLKI", "values": [{"measurement": "COUNTS of radiolabeled gp120 retained", "setting": "[5]", "value": 697, "unit": "counts"}]}, {"sequence": "QKEEVQLLV", "values": [{"measurement": "COUNTS of radiolabeled gp120 retained", "setting": "[5]", "value": 636, "unit": "counts"}]}, {"sequence": "EKLTGSGELWWQ", "values": [{"measurement": "COUNTS of radiolabeled gp120 retained", "setting": "[3]", "value": 543, "unit": "counts"}]}, {"sequence": "PMALIVLGGVAGLLLFIGLGI", "values": [{"measurement": "number of radioactive decays (counts) counted", "value": 3067, "unit": "counts"}]}, {"sequence": "VEFSFPLAFTVEKLT", "values": [{"measurement": "COUNTS of radiolabeled gp120 retained", "setting": "[4]", "value": 899, "unit": "counts"}]}, {"sequence": "YHEDYGFSSFNDSSQEEH", "values": [{"measurement": "Binding Results For Window Length (counts bound-background), 9", "setting": "STRL33 amino terminus, 9-mer starting at the first residue of the printed sequence, background subtracted", "value": 728, "unit": "counts"}, {"measurement": "Binding Results For Window Length (counts bound-background), 12", "setting": "STRL33 amino terminus, 12-mer starting at the first residue of the printed sequence, background subtracted", "value": 1950, "unit": "counts"}, {"measurement": "Binding Results For Window Length (counts bound-background), 15", "setting": "STRL33 amino terminus, 15-mer starting at the first residue of the printed sequence, background subtracted", "value": 1357, "unit": "counts"}, {"measurement": "Binding Results For Window Length (counts bound-background), 18", "setting": "STRL33 amino terminus, 18-mer starting at the first residue of the printed sequence, background subtracted", "value": 985, "unit": "counts"}]}, {"sequence": "MEGIAIYTSDNYTEEMGS [CXCR4 (1-18) variant S5A]", "values": [{"measurement": "Relative % of Control", "value": "133 ± 5", "unit": "%"}]}, {"sequence": "GAQVEFSFPLAFTVE", "values": [{"measurement": "COUNTS of radiolabeled gp120 retained", "setting": "Panel G, alanine replacements and serial truncations (Z) of CD4 polypeptides, empty control 580", "value": "18079 counts and 17733 counts"}]}, {"sequence": "AEVQLLVFGLTANSD", "values": [{"measurement": "COUNTS of radiolabeled gp120 retained", "setting": "Panel F, sequential alanine replacements of CD4 polypeptides, duplicate series, empty control 569", "value": "16220 counts and 14590 counts"}]}, {"sequence": "VVLAFQKASSIVYKK", "values": [{"measurement": "COUNTS of radiolabeled gp120 retained", "setting": "[4]", "value": 577, "unit": "counts"}]}, {"sequence": "EVEDQKEEV", "values": [{"measurement": "COUNTS of radiolabeled gp120 retained", "setting": "[5]", "value": 587, "unit": "counts"}]}, {"sequence": "HLLQGQSLTLTL", "values": [{"measurement": "COUNTS of radiolabeled gp120 retained", "setting": "[5]", "value": 701, "unit": "counts"}]}, {"sequence": "VMVICYSGILKTLLRCRN [CCR5 segment 209-]", "values": [{"measurement": "Counts per 20′ Average-background", "setting": "background subtracted", "value": "−8", "unit": "counts per 20′"}]}, {"sequence": "TDKYRLHLSVADLLFVIT [CXCR4 segment 73-90]", "values": [{"measurement": "radioactive counts recorded in twenty minutes", "setting": "[6]", "value": 92, "unit": "counts"}, {"measurement": "radioactive counts recorded in twenty minutes", "setting": "[7]", "value": 504, "unit": "counts"}]}]}
